The text below walks through data of US7411083B2, “Substituted acetic acid derivatives” (Wyeth, priority 2003, dated 2008).

Assay [1] has as its target T1, recombinant human plasminogen activator inhibitor-1 (PAI-1) (Homo sapiens, UniProt P05121).
T1 construct: purchased Molecular Innovations, Royal Oak, Mich
As to the kind of experiment: Screening for PAI-1 inhibition (residual tPA activity, Spectrozyme-tPA chromogenic substrate). The format is biochemical. The note with it: test compound at 100 Um; pH 6.6 buffer, 140 nM PAI-1, 70 nM tPA. The procedure, abridged:
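PAI-1 at 140 nM, pH 6.6 buffer, preincubated 1 h at room temperature with compound (1-100 μM final, ≤0.2% DMSO), then 70 nM tPA added for 30 min. Residual tPA activity read by Spectrozyme-tPA absorbance at 405 nm at 0 and 60 min. Inhibition taken as residual tPA activity.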

For another assay, the target named is human PAI-1 (Homo sapiens, UniProt P05121). As to the kind of experiment: Assay for determining the IC50 of inhibition of PAI-1 (active PAI-1 bound to tPA-coated plate, 33B8 antibody detection). In kind it is biochemical. The note with it: values carry suffix (K), not explained; test compounds 1-50 μM, pH 7.5. As for the experimental part:
Assay for determining the IC50 of inhibition of PAI-1. This assay is based upon the non-SDS dissociable interaction between Tpa and active PAI-1. Assay plates are initially coated with human Tpa (10 μg/ml). Test compounds are dissolved in DMSO at 10 Mm, then diluted with physiologic buffer (Ph 7.5) to a final concentration of 1-50 μM. The test compounds are incubated with human PAI-1 (50 ng/ml) for 15 minutes at room temperature. The Tpa-coated plate is washed with a solution of 0.05% Tween 20 and 0.1% BSA, then the plate is blocked with a solution of 3% BSA. An aliquot of the test compound/PAI-1 solution is then added to the Tpa-coated plate, incubated at room temperature for 1 hour, and washed. Active PAI-1 bound to the plate is assessed by adding an aliquot of a 1:1000 dilution of the 33B8 monoclonal antibody against human PAI-1, and incubating the plate at room temperature for 1 hour (Molecular Innovations, Royal Oak, Mich.). The plate is again washed, and a solution of goat anti-mouse IgG-alkaline phosphatase conjugate is added at a 1:50,000 dilution in goat serum. The plate is incubated 30 minutes at room temperature, washed, and a solution of alkaline phosphatase substrate is added. The plate is incubated 45 minutes at room temperature, and color development is determined at OD405 nm. The quantitation of active PAI-1 bound to Tpa at varying concentrations of the test compound is used to determine the IC50. Results are analyzed using a logarithmic best-fit equation. The assay sensitivity is 5 ng/ml of human PAI-1 as determined from a standard curve ranging from 0-100 ng/ml.

human PAI-1, sequence (P05121 24-402): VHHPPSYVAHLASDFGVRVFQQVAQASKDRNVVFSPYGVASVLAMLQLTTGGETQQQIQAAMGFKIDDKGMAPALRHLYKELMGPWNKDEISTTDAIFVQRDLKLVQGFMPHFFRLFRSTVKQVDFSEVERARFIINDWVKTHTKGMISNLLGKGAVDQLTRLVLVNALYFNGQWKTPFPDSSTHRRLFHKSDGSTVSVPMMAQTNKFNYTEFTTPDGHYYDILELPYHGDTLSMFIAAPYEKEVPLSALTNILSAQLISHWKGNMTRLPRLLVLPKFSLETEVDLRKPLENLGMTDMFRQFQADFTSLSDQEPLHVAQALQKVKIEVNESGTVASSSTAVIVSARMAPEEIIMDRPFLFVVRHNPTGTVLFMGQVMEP
T1 sequence (P05121 24-402): as above

In the case of `O=C(O)CO/N=C/c1cn(Cc2ccccc2)c2ccc(OCc3ccc(C(F)(F)F)cc3)cc12` [Compound 3, ({[(1E)-(1-benzyl-5-{[4-(trifluoromethyl)benzyl]oxy}-1H-indol-3-yl)methylidene]amino}oxy)acetic acid], the inhibition (usually the change of the read-out against control, counted positive when it falls) at 100 µM in assay [1] was found to be 82%. On human PAI-1, inhibition was half-maximal at 1.85 µM (IC50).

Turning to `O=C(O)CO/N=C/c1cn(Cc2ccccc2)c2ccc(OCc3ccc(Br)cc3)cc12` [Compound 9, {[((1E)-{1-benzyl-5-[(4-bromobenzyl)oxy]-1H-indol-3-yl}methylidene)amino]oxy}acetic acid], the inhibition at 100 µM in assay [1] amounted to 85%. Also, the IC50 (usually the concentration at which inhibition is half-maximal) on human PAI-1 was 16.9 µM.

Regarding `Cn1cc(/C=N/OCC(=O)O)c2cc(OCc3ccc(C(F)(F)F)cc3)ccc21` [Compound 32, ({[(1E)-(1-methyl-5-{[4-(trifluoromethyl)benzyl]oxy}-1H-indol-3-yl)methylidene]amino}oxy)acetic acid], in assay [1], the inhibition at 100 µM amounted to 82%. At human PAI-1, this compound registered an IC50 of 9.36 µM.

As to `O=C(O)CO/N=C/c1cccc(-c2ccc(OCc3cccc(Cl)c3)cc2)c1` [Compound 78, {[((1E)-{4′-[(3-chlorobenzyl)oxy]-1,1′-biphenyl-3-yl}methylidene)amino]oxy}acetic acid], the inhibition at 100 µM in assay [1] amounted to 23%.

With `O=C(O)CO/N=C/c1ccc(-c2cccc(OCc3ccc(Cl)cc3)c2)cc1` [Compound 95, {[((1E)-{3′-[(4-chlorobenzyl)oxy]-1,1′-biphenyl-4-yl}methylidene)amino]oxy}acetic acid], in assay [1], the inhibition at 100 µM is 27%.

Turning to `O=C(O)CO/N=C/c1cc(OCc2ccc(Br)cc2)ccc1OCc1ccc(Br)cc1` [Compound 155, {[((1E)-{2,5-bis[(4-bromobenzyl)oxy]phenyl}methylidene)amino]oxy}acetic acid], in assay [1], the inhibition at 100 µM came out at 85%.

`C#CCn1cc(/C=N/OCC(=O)O)c2cc(OCc3cccc(Br)c3)ccc21` [Compound 36, [({(1E)-[5-[(3-bromobenzyl)oxy]-1-(2-propynyl)-1H-indol-3-yl]methylidene}amino)oxy]acetic acid]: in assay [1], the inhibition at 100 µM is 92%.

Take `O=C(O)CO/N=C/c1cccc(OCc2cccc(C(F)(F)F)c2)c1OCc1cccc(C(F)(F)F)c1` [Compound 139, ({[(1E)-(2,3-bis{[3-(trifluoromethyl)benzyl]oxy}phenyl)methylidene]amino}oxy)acetic acid]: the inhibition at 100 µM in assay [1] was found to be 90%.
